Several values for one entry are separate records, joined by “and”; a condition that tells them apart may be missing. Equal values may be shown once.
Assays:
MCF-7 = assay: Propidium iodide anti-proliferative assay; format: cell-based; conditions: Homo sapiens, MCF7; 48 h incubation; read-out: IC50 ± SEM MCF-7
Description: (§1) The propidium iodide (PI) tests^31, 32 were further used for assessment of the IC50 of all synthesized compounds and compared to Doxorubicin as a positive control against four cancer cell lines; pancreatic cancer cell line (Panc-1), epithelial line cancer cell (A-549), breast cancer cell line (MCF-7), and colon cancer cell line (HT-29).
(§2) Using the propidium iodide fluorescence assay with doxorubicin as the reference drug, IC50 of the 24 compounds 7a-x, was carried out according to a previously reported procedure^31, 32 against a panel of four human cancer cell lines; epithelial cancer cell line (A-549), breast cancer cell line (MCF-7), colon cancer cell line (HT-29) and pancreas cancer cell line (Panc-1). Compounds 7a-x were incubated with cancer cells for 2 days at different concentrations. See Appendix A.
(§3) To explore the antiproliferative potential of compounds propidium iodide fluorescence assay was performed using different cell lines (melanoma cancer cell line LOX-IMVI, pancreatic cancer cell line (Panc-1), epithelial line cancer cell (A-549), breast cancer cell line (MCF-7), and colon cancer cell line (HT-29). To calculate the total nuclear DNA, a fluorescent dye (propidium iodide, PI) is used which can attach to the DNA,^9,^10 thus offering a quick and precise technique. PI cannot pass through the cell membrane and its signal intensity can be considered as directly proportional to the quantity of cellular DNA. Cells whose cell membranes are damaged or have changed permeability are counted as dead ones. The assay was performed by seeding the cells of different cancer cell lines at a density of 3000-7500 cells/well (in 200µl medium) in culture plates followed by incubation for 24h at 37 °C in humidified 5% CO2/95% air atmospheric conditions. The medium was removed; the compounds were added to the plates at 10 µM concentrations (in 0.1% DMSO) in triplicates, followed by incubation for 48 h. DMSO (0.1%) was used as control. After incubation, medium was removed followed by the addition of PI (25 µl, 50µg/mL in water/medium) to each well of the plates. At -80 °C, the plates were allowed to freeze for 24 h, followed by thawing at 25 °C. A fluorometer (Polar-Star BMG Tech) was used to record the readings at excitation and emission wavelengths of 530 and 620 nm for each well. The percentage cytotoxicity of compounds was calculated using the following formula:
(§4) Where ATC= Absorbance of treated cells and AC= Absorbance of control. […]

Panc-1 = assay: Propidium iodide anti-proliferative assay; format: cell-based; conditions: Homo sapiens, 48 h incubation, read-out: IC50 ± SEM Panc-1
Description: as §1, §2, §3, §4

A-549 = assay: Propidium iodide anti-proliferative assay; format: cell-based; conditions: Homo sapiens, A549; 48 h incubation; read-out: IC50 ± SEM A-549
Description: as §1, §2, §3, §4

HT-29 = assay: Propidium iodide anti-proliferative assay; format: cell-based; conditions: Homo sapiens, 48 h incubation, read-out: IC50 ± SEM HT-29
Description: as §1, §2, §3, §4

[1] = MTT cell viability assay in normal cells; format: cell-based; conditions: human, MCF-10A normal mammary epithelial cells
Description: To check the safety of prepared compounds and evaluate their selectivity towards tumor cells over normal ones, the toxicity of compounds 7a-x were evaluated by 3-(4,5-Dimethylthiazole-2-yl)-2,5-diphenyltetrazol (MTT) assay on the normal human mammary epithelial cell line (MCF-10 A). The human mammary epithelial cell lines were incubated for four days with a concentration of 50 µM of compounds 7a-x.
MTT assay was done to determine the effect of the synthesized compounds on the viability of mammary epithelial cells (MCF-10 A). Compounds 7a-x were incubated with MCF-10 A cells for 4 days at 50 µM concentration, and the viability of cells was determined. See Appendix A.
MTT assay was carried out to study the effect of compounds on mammary epithelial cells (MCF-10A).^7, ^8 The medium in which cells were propagated contained Dulbecco's modified Eagle's medium (DMEM)/ Ham's F-12 medium (1:1) supplemented with epidermal growth factor (20 ng/mL), hydrocortisone (500 ng/mL), insulin (10 μg/mL), 2 mM glutamine and 10% foetal calf serum. After every 2-3 days, the cells were passaged using trypsin ethylenediamine tetra acetic acid (EDTA). The cells were seeded at a density of 10^4 cells mL^-1 in flat-bottomed culture plates containing 96 wells each. After 24 h, medium was removed from the plates and the compounds in (in 0.1% DMSO) were added (in 200 μL medium to yield a final concentration of 0.1% v/v) to the wells of plates. A single compound was designated with four wells followed by incubation of plates for 96h at 37°C. After incubation, medium was removed completely from the plates followed by addition of MTT (0.4 mg/mL in medium) to each well and subsequent incubation of plates for 3h. MTT (along with the medium) was removed and DMSO (150μL) was added to each well of the culture plates, followed by vortexing and subsequent measurement of absorbance (at 540 nm) using microplate reader.

[2] = tested on: Caspase-9 in MCF-7 breast cancer cells; assay: Caspase-9 assay; format: cell-based, human
[3] = tested on: Cytochrome C in MCF-7 human breast cancer cell line; assay: Cytochrome C assay; format: cell-based
[4] = tested on: Caspase-8 in MCF-7 breast cancer cells; assay: Caspase-8 assay; format: cell-based, human
[5] = tested on: Caspase-3 in MCF-7 breast cancer cells; assay: Caspase-3 assay
Description: All reagents were allowed to reach room temperature before use. All liquid reagents were gently mixed before use. The number of 8-well strips needed for the assay was determined. These were inserted into the frame(s) for current use. A total of 100 µL of the Standard Diluent Buffer was added to the zero standard wells. Well(s) reserved for chromogen blank were left empty. A total of 100 µL of standards and controls or diluted samples was added to the appropriate microtiter wells. The sample dilution chosen was optimized for each experimental system. The side of the plate was gently tapped on to
mix. Wells were covered with a plate cover and incubated for 2 h at room temperature. The solution was thoroughly aspirated or decanted from the wells and the liquid was discarded; wells were washed four times. […] The side of the plate was gently tapped on to mix. The plate was covered with a plate cover and incubated for 1h at room temperature. The solution was thoroughly aspirated or decanted from wells and the liquid was discarded; wells were washed four times. A total of 100 µL Anti-Rabbit IgG HRP Working Solution was added to each well except the chromogen blank(s). The working dilution was prepared as described in Preparing IgG HRP. Wells were covered with the plate cover and incubated for 30 min at room temperature. The solution was thoroughly aspirated or decanted from the wells and the liquid was discarded. Wells were washed four times. A total of 100 µL of Stabilized Chromogen was added to each well. The liquid in the wells began to turn blue. It was incubated for 30 min at room temperature and in the dark. The incubation time for chromogen substrate was determined by the microtiter plate reader used. Many plate readers have the capacity to record a maximum optical density (O.D.) of 2.0. The O.D. values were monitored, and the substrate reaction was stopped before the O.D. of the positive wells exceeds the limits of the instrument. The O.D. values at 450 nm could only be read after the Stop Solution had been added to each well. A total of 100 µL of Stop Solution was added to each well. The side of the plate was gently tapped to mix. The solution in the wells changed from blue to yellow. The absorbance of each well was read at 450 nm, having blanked the plate reader against a chromogen blank composed of 100 µL each of Stabilized Chromogen and Stop Solution. The plate was read within 2 h after adding the Stop Solution. A curve fitting software was used to generate the standard curve.
The concentrations for unknown samples and controls from the standard curve were read. Value(s) obtained for sample(s) by the appropriate dilution factor were multiplied to correct for the dilution in step 3.

[6] = tested on: Panc-1, A-549, MCF-7 and HT-29; assay: Propidium iodide anti-proliferative assay, four cell lines together; format: cell-based; conditions: Homo sapiens; range over Panc-1, A-549, MCF-7, HT-29; read-out: IC50 range on the four tested cell lines
Description: as §1, §2
as §3, with “The medium was removed; the compounds were added to the plates at 10 µM concentrations (in 0.1% DMSO) in triplicates, followed by incubation for 48 h. DMSO (0.1%) was used as control. After incubation, medium was removed followed by the addition of PI (25 µl, 50µg/mL in water/medium) to each well of the plates. At -80 °C, the plates were allowed to freeze for 24 h, followed by thawing at 25 °C.” left out
as §4

Bcl-2 in MCF-7 = assay: Bcl-2 inhibition assay
Description: All reagents were thoroughly mixed without foaming before use. The microwells were washed twice with approximately 300 µL Wash Buffer per well with the thorough aspiration of microwell contents between washes. Care was taken not to scratch the surface of the microwells. After the last wash, the wells were emptied and microwell strips were tapped on an absorbent pad or paper towel to remove excess Wash Buffer. The microwell strips were used immediately after washing or placed upside down on a wet absorbent paper for not longer than 15 min. Wells were not allowed to dry. A total of 100 µL of Sample Diluent was added in duplicate to all standard wells and the blank wells. Standard (1:2 dilution) in duplicate was prepared ranging from 32 to 0.5 ng/mL. A total of 100 µL of Sample Diluent, in duplicate, was added to the blank wells. A total of 80 µL of Sample Diluent, in duplicate, was added to the sample wells. A total of 20 µL of each sample, in duplicate, was added to the designated wells. A total of 50 µL of diluted biotin was added, conjugated to all wells, including the blank wells. It was covered with a plate cover and incubated at room temperature on a microplate shaker at 100 rpm for 2 h. The plate cover was removed and the wells were emptied. Microwell strips were washed times as described in Step 2. A total of 100 µL of diluted Streptavidin-HRP was added to all wells, including the blank wells. It was covered with a plate cover and incubated at room temperature on a microplate shaker at 100 rpm for 1 h. The plate cover was removed and the wells were emptied. Microwell strips were washed three times, as described in Step 2. A total of 100 µL of mixed TMB Substrate Solution was pipetted into all wells, including the blanks. The microwell strips were incubated at room temperature (18 ◦C to 25 ◦C) for about 15 min, on a rotator set at 100 rpm. Direct exposure to intense light was avoided. The point at which the substrate reaction is stopped was determined by the ELISA reader. Many ELISA readers record absorbance only up to 2.0 O.D. Therefore, the color development within individual microwells was watched by the person running the assay, and the substrate reaction was stopped before positive wells were no longer properly detectable. The enzyme reaction was stopped by quickly pipetting 100 µL of Stop Solution into each well, including the blank wells. It was important that the Stop Solution was spread quickly and uniformly throughout the microwells to inactivate the enzyme completely. Results were read immediately after the Stop Solution was added or within one hour if the microwell strips were stored at 2–8 ◦C in the dark. The absorbance of each microwell was read on a spectrophotometer using 450 nm as the primary wavelength.

BAX in MCF-7 = assay: BAX activation assay
Description: All reagents were brought to room temperature for at least 30 min before opening (except the human BAX-α Standard). Human BAX-α Standard solution was not be left at room temperature for more than 10 min. Duplicates of all standards, controls, and samples were run. The Assay Layout Sheet was used to determine the number of wells to be used, and any remaining wells were put with the desiccant back into the pouch, and the ziplock was sealed. Unused wells were stored at 4 ◦C. A total of 100 µL of Assay Buffer was pipetted into the S0 (0 pg/mL standard) wells. A total of 100 µL of Standards #1 through #6 was pipetted into the appropriate wells. A total of 100 µL of the samples was pipetted into the appropriate wells. The plate was gently tapped to mix the contents. The plate was sealed and incubated at room temperature on a plate shaker for 1 h at ~500 rpm. The contents of the wells were emptied and washed by adding 400 µL of wash solution to every well. The wash was repeated four more times for a total of five washes. After the final wash, the wells were emptied or aspirated and firmly the plate on a lint-free paper towel was tapped to remove any remaining wash buffer. A total of 100 µL of yellow antibody was pipetted into each well, except the Blank. The plate was sealed and incubated at room temperature on a plate shaker for 1 h at ~500 rpm. The contents of the wells were emptied and washed by adding 400 µL of wash solution to every well. The wash was repeated four more times for a total of five washes. After the final wash, the wells were emptied or aspirated, and the plate was firmly tapped on a lint-free paper towel to remove any remaining wash buffer. A total of 100 µL of blue Conjugate was added to each well, except the Blank. The plate was sealed and incubated at room temperature on a plate shaker for 30 min at ~500 rpm. The contents of the wells were emptied and washed by adding 400 µL of wash solution to every well. The wash was repeated four more times for a total of five washes. After the final wash, the wells were emptied or aspirated and the plate was firmly tapped on a lint-free paper towel to remove any remaining wash buffer. A total of 100 µL of Substrate Solution was pipetted into each well. It was incubated for 30 min at room temperature on a plate shaker at ~500 rpm. A total of 100 µL Stop Solution was pipetted into to each well. The plate reader was blanked against the Blank wells, and the optical density was read at 450 nm. The average net optical density (OD) bound for each standard and sample was calculated by subtracting the average Blank OD from the average OD for each standard and sample. Using linear graph paper, the Average Net OD for each standard versus BAX concentration in each standard were plotted. A straight line was approximated through the points. The concentration of BAX in the unknowns could be determined by interpolation.

Structure (SMILES) | IC50 (MCF-7) [µM] | IC50 (Panc-1) [µM] | IC50 (A-549) [µM] | IC50 (HT-29) [µM] | viability at 96 h, 50 µM [1] [%] | melting point [°C] | Caspase-9 Fold change ([2]; MCF-7, vs untreated control) [fold] | Caspase-9 Conc ([2]; MCF-7 breast cancer cells) [ng/mL] | Cytochrome C Fold change ([3]; MCF-7, vs untreated control) [fold] | Cytochrome C Conc ([3]; MCF-7 breast cancer cells) [ng/mL] | Caspase-8 Fold change ([4]; MCF-7, vs untreated control) [fold] | Caspase-8 Conc ([4]; MCF-7 breast cancer cells) [ng/mL] | Caspase-3 Fold change ([5]; MCF-7, vs untreated control) [fold] | Caspase-3 Conc ([5]; MCF-7 breast cancer cells) [pg/mL] | IC50 [6] [nM] | Bcl-2 Conc (Bcl-2 in MCF-7; MCF-7) | Bcl-2 Fold reduction (Bcl-2 in MCF-7; MCF-7, vs untreated control) [fold] | BAX Conc (BAX in MCF-7; MCF-7) | BAX Fold change (BAX in MCF-7; MCF-7, vs untreated control) [fold]
COc1ccc(/C=C/C(=O)c2ccc(NC(=O)CSc3nnc(-c4ccc5[nH]c(-c6ccc(Cl)cc6)nc5c4)o3)cc2)cc1OC [Compound 7i, 2-{5-[2-(4-Chlorophenyl)-1 H-benzo[d]imidazol-5-yl]-1,3,4-oxadiazol-2-ylthio}-N-{4-[(E)-3-(3,4-dimethoxyphenyl)acryloyl]phenyl}acetamide] | 9.2 ± 1 | 10.2 ± 1.2 | 9.7 ± 1.1 | 10.2 ± 1.3 | 84 | 208 to 210 |  |  |  |  |  |  |  |  |  |  |  |  | 
COc1cc(/C=C/C(=O)c2ccc(NC(=O)CSc3nnc(-c4ccc5[nH]c(-c6ccc(Cl)cc6)nc5c4)o3)cc2)cc(OC)c1OC [Compound 7j, 2-{5-[2-(4-Chlorophenyl)-1 H-benzo[d]imidazol-5-yl]-1,3,4-oxadiazol-2-ylthio}-N-{4-[(E)-3-(3,4,5-trimethoxyphenyl)acryloyl]phenyl}acetamide] | 9.4 ± 1.2 | 10.3 ± 1.2 | 9.95 ± 1.1 | 10.7 ± 1.1 | 89 | 223 to 225 |  |  |  |  |  |  |  |  |  |  |  |  | 
COc1ccc(/C=C/C(=O)c2ccc(NC(=O)CSc3nnc(-c4ccc5[nH]c(-c6ccc(OC)c(OC)c6)nc5c4)o3)cc2)cc1OC [Compound 7s, 2-{5-[2-(3,4-Dimethoxyphenyl)-1 H-benzo[d]imidazol-5-yl]-1,3,4-oxadiazol-2-ylthio}-N-{4-[(E)-3-(3,4-dimethoxyphenyl)acryloyl]phenyl}acetamide] | 3.15 ± 0.5 | 4.3 ± 0.6 | 3.8 ± 0.6 | 4.55 ± 0.6 | 87 | 190 to 193 |  |  |  |  |  |  |  |  |  |  |  |  | 
COc1ccc(-c2nc3cc(-c4nnc(SCC(=O)Nc5ccc(C(=O)/C=C/c6cc(OC)c(OC)c(OC)c6)cc5)o4)ccc3[nH]2)cc1OC [Compound 7t, 2-{5-[2-(3,4-Dimethoxyphenyl)-1 H-benzo[d]imidazol-5-yl]-1,3,4-oxadiazol-2-ylthio}-N-{4-[(E)-3-(3,4,5-trimethoxyphenyl)acryloyl]phenyl}acetamide] | 10.1 ± 1 | 10.9 ± 1.2 | 10.6 ± 1.1 | 10.8 ± 1.2 | 88 | 190 to 193 |  |  |  |  |  |  |  |  |  |  |  |  | 
COc1ccc(/C=C/C(=O)c2ccc(NC(=O)CSc3nnc(-c4ccc5[nH]c(-c6cc(OC)c(OC)c(OC)c6)nc5c4)o3)cc2)cc1 [Compound 7w, 2-{5-[2-(3,4,5-Trimethoxyphenyl)-1 H-benzo[d]imidazol-5-yl]-1,3,4-oxadiazol-2-ylthio}-N-{4-[(E)-3-(4-methoxyphenyl)acryloyl]phenyl}acetamide] | 10.2 ± 1.2 | 11.2 ± 1.2 | 10.9 ± 1.1 | 11.2 ± 1.3 | 91 | 200 to 204 |  |  |  |  |  |  |  |  |  |  |  |  | 
COc1ccc(/C=C/C(=O)c2ccc(NC(=O)CSc3nnc(-c4ccc5[nH]c(-c6cc(OC)c(OC)c(OC)c6)nc5c4)o3)cc2)cc1OC [Compound 7x, 2-{5-[2-(3,4,5-Trimethoxyphenyl)-1 H-benzo[d]imidazol-5-yl]-1,3,4-oxadiazol-2-ylthio}-N-{4-[(E)-3-(3,4-dimethoxyphenyl)acryloyl]phenyl}acetamide] | 10.8 ± 1.1 | 11.8 ± 1.2 | 11.5 ± 1.2 | 12.5 ± 1.5 | 85 | 212 to 215 |  |  |  |  |  |  |  |  |  |  |  |  | 
COc1cccc2c1C(=O)c1c(O)c3c(c(O)c1C2=O)C[C@@](O)(C(=O)CO)C[C@@H]3O[C@H]1C[C@H](N)[C@H](O)[C@H](C)O1 [Doxorubicin, reference compound] | 0.9 ± 0.1 | 1.41 ± 0.1 | 1.21 ± 0.1 | 1.01 ± 0.1 |  |  | 17.40 | 16.200 | 13.10 | 0.604 | 10.00 | 1.750 | 7.65 | 503.200 ± 4.20 | 900 to 1410 | 0.98 ng/mL and 0.985 ng/mL | 5.1 | 276 pg/mL and 276.500 pg/mL | 32.5
